The compounds below were run against T1, human GPR119 (Homo sapiens, UniProt Q8TDV5) (assay: Measurement of GPR119 signaling using LANCE 384-well cAMP kit (LCMP assay)). Conditions: HEK293 cells stably transfected with human GPR119.
T1 construct: expressed in transfected cells; host or cells: HEK293
T1 sequence (Q8TDV5 1-335): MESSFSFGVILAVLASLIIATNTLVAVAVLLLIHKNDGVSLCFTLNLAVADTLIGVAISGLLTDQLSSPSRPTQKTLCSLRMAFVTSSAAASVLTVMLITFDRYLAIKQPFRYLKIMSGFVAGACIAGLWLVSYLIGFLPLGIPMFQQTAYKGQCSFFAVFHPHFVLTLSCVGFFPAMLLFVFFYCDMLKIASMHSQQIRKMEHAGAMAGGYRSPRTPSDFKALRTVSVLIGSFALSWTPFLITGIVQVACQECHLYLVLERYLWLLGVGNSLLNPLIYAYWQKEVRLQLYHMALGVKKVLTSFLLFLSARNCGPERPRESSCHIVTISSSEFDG
Assay type: cell-based
Experimental: Measurement of GPR119 Signaling Using LANCE 384-Well cAMP Kit (LCMP Assay)
Human embryonic kidney (HEK) 293 cell lines stably transfected with human GPR119 were maintained in DMEM media containing FBS, penicillin-streptomycin, HEPES, and hygromycin. For the cAMP assay, the transfected cells were harvested using a non-enzymatic cell dissociation solution (GIBCO 2672), pelleted and resuspended in stimulation buffer (DMEM, 25 mM Hepes, 0.1% BSA, pH 7.4 in the presence of 100 μM phosphodiesterase inhibitors). The adenylate cyclase assay was constructed following the LANCE™ cAMP Kit (Perkin Elmer, AD0264) instructions. Briefly, cells with Alexa Fluor® 647-anti cAMP antibody were incubated with 10 point series diluted test article in stimulation buffer with a final concentration of 2.5% DMSO for 45 minutes. The reaction was stopped by incubating with the supplied detection buffer containing the europium chelate of the Eu-SA/Biotin-cAMP tracer for 3 hours. The assay was performed in duplicate in a 384 well plate for duplicate plates. Fluorescence at 665 nm was measured using a PHERAstar instrument. Basal activity was determined using a DMSO control and maximum response was defined as cAMP stimulation produced by an internal agonist control. Standard cAMP concentrations were assayed concurrently for conversion of fluorescence signal to cAMP level. The data was analyzed using 4-parameter curve fit in Microsoft Excel.

Row | SMILES | EC50 [nM]
1 | O=C1NCCN1c1ccc(OCC[C@H]2C[C@@H]2C2CCN(c3ncc(Cl)cn3)CC2)cc1F [Example 61, 1-(4-(2-((1R,2R)-2-(1-(5-chloropyrimidin-2-yl)piperidin-4-yl)cyclopropyl)ethoxy)-2-fluorophenyl)imidazolidin-2-one] | 17
2 | CC(C)c1noc(N2CCC([C@H]3C[C@@H]3CCOc3ccc(-n4cnnn4)c(F)c3)CC2)n1 [Example 86, 5-(4-((1R,2R)-2-(2-(3-fluoro-4-(1H-tetrazol-1-yl)phenoxy)ethyl)cyclopropyl)piperidin-1-yl)-3-isopropyl-1,2,4-oxadiazole] | 13
3 | CN(C)C(=O)Cc1ccc(OCC[C@@H]2C[C@H]2C2CCN(C(=O)OC3(C)CC3)CC2)cc1F [Example 99, 1-methylcyclopropyl 4-((1S,2S)-2-(2-(4-(2-(dimethylamino)-2-oxoethyl)-3-fluorophenoxy)ethyl)cyclopropyl)piperidine-1-carboxylate] | 8.8
4 | CC1(OC(=O)N2CCC([C@@H]3C[C@H]3CCOc3ccc(S(C)(=O)=O)c(F)c3)CC2)CC1 [Example 94, 1-methylcyclopropyl 4-((1S,2S)-2-(2-(3-fluoro-4-(methylsulfonyl)phenoxy)ethyl)cyclopropyl)piperidine-1-carboxylate] | 23
5 | CC(C)c1noc(N2CCC([C@@H]3C[C@H]3CCOc3ccc(N4CCNC4=O)cc3F)CC2)n1 [Example 88, 1-(3-fluoro-4-(2-((1S,2S)-2-(1-(3-isopropyl-1,2,4-oxadiazol-5-yl)piperidin-4-yl)cyclopropyl)ethoxy)phenyl)imidazolidin-2-one] | 18
6 | CS(=O)(=O)c1ccc(OCC[C@@H]2C[C@H]2C2CCN(c3ncc(Cl)cn3)CC2)cc1F [Example 24, 5-chloro-2-(4-((1S,2S)-2-(2-(3-fluoro-4-(methylsulfonyl)phenoxy)ethyl)cyclopropyl)piperidin-1-yl)pyrimidine] | 8.3
7 | CCS(=O)(=O)c1ccc(OCC[C@H]2C[C@@H]2C2CCN(c3nc(C(C)C)no3)CC2)c(F)c1 [Example 92, 5-(4-((1R,2R)-2-(2-(4-(ethylsulfonyl)-2-fluorophenoxy)ethyl)cyclopropyl)piperidin-1-yl)-3-isopropyl-1,2,4-oxadiazole] | 13
8 | CCc1cnc(N2CCC([C@H]3C[C@@H]3COCc3ccc(S(=O)(=O)CC)cc3)CC2)nc1 [Example 9, 5-ethyl-2-(4-((1R,2S)-2-(((4-(ethylsulfonyl)benzyl)oxy)methyl)cyclopropyl)piperidin-1-yl)pyrimidine] | 22
9 | CS(=O)(=O)c1ccc(OCC[C@H]2C[C@@H]2C2CCN(c3ncc(Cl)cn3)CC2)c(F)c1 [Example 30, 5-chloro-2-(4-((1R,2R)-2-(2-(2-fluoro-4-(methylsulfonyl)phenoxy)ethyl)cyclopropyl)piperidin-1-yl)pyrimidine] | 23
10 | Fc1cc(-n2cnnn2)ccc1OCC[C@H]1C[C@@H]1C1CCN(c2ncc(Cl)cn2)CC1 [Example 58, 5-chloro-2-(4-((1R,2R)-2-(2-(2-fluoro-4-(1H-tetrazol-1-yl)phenoxy)ethyl)cyclopropyl)piperidin-1-yl)pyrimidine] | 11
11 | COCc1cnc(N2CCC([C@@H]3C[C@H]3CCOc3ccc(CC(=O)N4CCC4)c(F)c3)CC2)nc1 [Example 48, 1-(azetidin-1-yl)-2-(2-fluoro-4-(2-((1S,2S)-2-(1-(5-(methoxymethyl)pyrimidin-2-yl)piperidin-4-yl)cyclopropyl)ethoxy)phenyl)ethanone] | 8.5

Stronger by EC50, values ahead:

Row | EC50 [nM] | SMILES
12 | 6.3 | CC1(OC(=O)N2CCC([C@H]3C[C@@H]3CCOc3ccc(CC(=O)N4CCC4)cc3F)CC2)CC1 [Example 98, 1-methylcyclopropyl 4-((1R,2R)-2-(2-(4-(2-(azetidin-1-yl)-2-oxoethyl)-2-fluorophenoxy)ethyl)cyclopropyl)piperidine-1-carboxylate]
13 | 6.3 | CC(C)c1noc(N2CCC([C@@H]3C[C@H]3CCOc3ccc(CC(=O)N(C)C)c(F)c3)CC2)n1 [Example 76, 2-(2-fluoro-4-(2-((1S,2S)-2-(1-(3-isopropyl-1,2,4-oxadiazol-5-yl)piperidin-4-yl)cyclopropyl)ethoxy)phenyl)-N,N-dimethylacetamide]
14 | 5.6 | Fc1cc(-n2cnnn2)ccc1OCC[C@@H]1C[C@H]1C1CCN(c2ncc(Cl)cn2)CC1 [Example 41, 5-chloro-2-(4-((1S,2S)-2-(2-(2-fluoro-4-(1H-tetrazol-1-yl)phenoxy)ethyl)cyclopropyl)piperidin-1-yl)pyrimidine]
15 | 3.8 | CCS(=O)(=O)c1ccc(OCC[C@@H]2C[C@H]2C2CCN(c3nc(C(C)C)no3)CC2)c(F)c1 [Example 71, 5-(4-((1S,2S)-2-(2-(4-(ethylsulfonyl)-2-fluorophenoxy)ethyl)cyclopropyl)piperidin-1-yl)-3-isopropyl-1,2,4-oxadiazole]
16 | 3.5 | CC(C)c1noc(N2CCC([C@@H]3C[C@H]3CCOc3ccc(S(C)(=O)=O)cc3F)CC2)n1 [Example 66, 5-(4-((1S,2S)-2-(2-(2-fluoro-4-(methylsulfonyl)phenoxy)ethyl)cyclopropyl)piperidin-1-yl)-3-isopropyl-1,2,4-oxadiazole]
17 | 2.9 | CCc1cnc(N2CCC([C@H]3C[C@@H]3CCOc3ccc(CC(=O)N4CCC4)cc3F)CC2)nc1 [Example 44, 1-(azetidin-1-yl)-2-(4-(2-((1R,2R)-2-(1-(5-ethylpyrimidin-2-yl)piperidin-4-yl)cyclopropyl)ethoxy)-3-fluorophenyl)ethanone]
18 | 2.6 | CC1(OC(=O)N2CCC([C@H]3C[C@@H]3CCOc3ccc(CC(=O)N4CCC4)c(F)c3)CC2)CC1 [Example 95, 1-methylcyclopropyl 4-((1R,2R)-2-(2-(4-(2-(azetidin-1-yl)-2-oxoethyl)-3-fluorophenoxy)ethyl)cyclopropyl)piperidine-1-carboxylate]
19 | 1.8 | O=C(Cc1ccc(OCC[C@@H]2C[C@H]2C2CCN(c3ncc(Cl)cn3)CC2)cc1F)N1CCC1 [Example 42, 1-(azetidin-1-yl)-2-(4-(2-((1S,2S)-2-(1-(5-chloropyrimidin-2-yl)piperidin-4-yl)cyclopropyl)ethoxy)-2-fluorophenyl)ethanone]
20 | 1.6 | CS(=O)(=O)c1ccc(COC[C@H]2C[C@@H]2C2CCN(c3ncc(Cl)cn3)CC2)c(F)c1 [Example 4]
21 | 1.3 | CCc1cnc(N2CCC([C@H]3C[C@@H]3COCc3ccc(S(C)(=O)=O)cc3F)CC2)nc1 [Example 8, 5-ethyl-2-(4-((1R,2S)-2-(((2-fluoro-4-(methylsulfonyl)benzyl)oxy)methyl)cyclopropyl)piperidin-1-yl)pyrimidine]
22 | 0.63 | COCc1cnc(N2CCC([C@H]3C[C@@H]3CCOc3cc(F)c(CC(=O)N(C)C)c(F)c3)CC2)nc1 [Example 57, 2-(2,6-difluoro-4-(2-((1R,2R)-2-(1-(5-(methoxymethyl)pyrimidin-2-yl)piperidin-4-yl)cyclopropyl)ethoxy)phenyl)-N,N-dimethylacetamide]
23 | 0.35 | CCc1cnc(N2CCC([C@@H]3C[C@H]3CCOc3cc(F)c(CC(=O)N4CCC4)c(F)c3)CC2)nc1 [Example 50, 1-(azetidin-1-yl)-2-(4-(2-((1S,2S)-2-(1-(5-ethylpyrimidin-2-yl)piperidin-4-yl)cyclopropyl)ethoxy)-2,6-difluorophenyl)ethanone]

— patent US20150274664A1 (MERCK SHARP & DOHME CORP., priority 2012, published 2015)
